Reference: patent EP0981349B1, “5-ALPHA-PREGNAN-3-BETA-OL-20-ONE SULFATE FOR THE TREATMENT OF TUMOURS AND CNS DISEASES” (Wyeth, priority 1997, dated 1998)
Structures can show the parent of a compound that is named as a salt.

How the values were obtained:
progesterone receptors = target: T1, progesterone receptors (Homo sapiens, UniProt P06401); assay: Stimulation of alkaline phosphatase enzyme activity in T47D cells (progestational activity)
T1 sequence (P06401 1-933): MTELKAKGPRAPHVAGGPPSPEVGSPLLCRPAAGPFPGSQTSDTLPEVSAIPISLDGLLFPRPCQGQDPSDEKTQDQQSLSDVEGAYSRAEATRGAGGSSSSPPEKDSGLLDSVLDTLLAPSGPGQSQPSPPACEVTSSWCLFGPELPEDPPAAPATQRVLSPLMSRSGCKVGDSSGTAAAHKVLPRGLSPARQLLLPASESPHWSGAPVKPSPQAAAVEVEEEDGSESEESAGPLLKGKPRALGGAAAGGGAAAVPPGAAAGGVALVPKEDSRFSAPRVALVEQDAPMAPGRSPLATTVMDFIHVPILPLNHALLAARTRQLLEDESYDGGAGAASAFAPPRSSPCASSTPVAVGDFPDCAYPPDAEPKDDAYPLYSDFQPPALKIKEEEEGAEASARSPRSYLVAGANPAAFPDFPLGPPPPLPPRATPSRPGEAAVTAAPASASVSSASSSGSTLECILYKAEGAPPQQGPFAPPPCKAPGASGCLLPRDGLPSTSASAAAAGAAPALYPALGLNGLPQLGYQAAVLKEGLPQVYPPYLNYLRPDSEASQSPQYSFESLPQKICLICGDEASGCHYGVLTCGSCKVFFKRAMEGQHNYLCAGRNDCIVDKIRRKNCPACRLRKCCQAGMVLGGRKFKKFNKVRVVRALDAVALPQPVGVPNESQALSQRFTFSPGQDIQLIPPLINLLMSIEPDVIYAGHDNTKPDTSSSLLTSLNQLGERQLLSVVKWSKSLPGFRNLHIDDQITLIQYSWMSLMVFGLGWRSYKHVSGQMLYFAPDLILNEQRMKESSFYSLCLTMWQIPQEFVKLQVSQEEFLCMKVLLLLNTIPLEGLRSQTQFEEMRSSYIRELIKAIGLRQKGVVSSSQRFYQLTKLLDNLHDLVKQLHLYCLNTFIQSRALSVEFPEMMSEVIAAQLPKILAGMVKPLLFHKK
Protocol: The progestational activity of a representative compound of this invention (5α-pregnan-3β-ol-20-one 3-sulfate ester sodium salt) was evaluated in an in vitro standard pharmacological test procedure.
In this test procedure, the progestational activity of a compound is quantified based on its stimulation of alkaline phosphatase enzyme activity in T47D cells, a human breast cancer cell line which expresses high levels of progesterone receptors. This is a well established test procedure in which both the progestin receptors and the response stimulated by activated progestin receptors are endogenous to the cells. Cells are pre-conditioned in low serum medium for one day and then treated with test compounds. Alkaline phosphatase activity is measured 24 hr after treatment.

[1] = tested on: potassium channel currents; assay: Whole cell recording of potassium currents from cultured hippocampal neurons; assay type: cell-based; settings: 2 µM, p = 0.0006
Protocol: (§1) Briefly, the following procedure was used.
(§2) Whole cell recording techniques were used to record calcium and potassium currents from cultured hippocampal neurons. The compounds to be evaluated were made fresh each day in a 400 µM ethanol stock solution. The test compounds were diluted in saline to obtain a final concentration of 2 µM. The amplitude of calcium or potassium currents in control, test compound, and washout solutions was measured from at least 10 current traces for each condition. To compensate for rundown of the calcium current with time, control and washout currents were averaged. The current amplitude with drug was divided by the averaged control and washout current to determine the percent change. The means, standard deviations and errors for each test compound were calculated and significance from control was determined using the paired T-Test.

calcium channel currents = assay: Whole cell recording of calcium currents from cultured hippocampal neurons; assay type: cell-based; settings: 2 µM, p = 0.044
Protocol: as §1, §2

fold induction of alkaline phosphatase (progesterone receptors; t47d cells, 24 h)	SMILES	EC50 (progesterone receptors)	increased potassium channel currents versus control [1]	Calcium channel currents decrease versus control (calcium channel currents)
	CC(=O)[C@H]1CC[C@H]2[C@@H]3CC[C@H]4C[C@@H](OS(=O)(=O)O)CC[C@]4(C)[C@H]3CC[C@]12C [5α-pregnan-3β-ol-20-one 3-sulfate ester sodium salt]	5 µM	21.76 ± 2.40%	4.64 ± 1.64%
30 - 60 fold	CC(=O)O[C@]1(C(C)=O)CC[C@H]2[C@@H]3C[C@H](C)C4=CC(=O)CC[C@]4(C)[C@H]3CC[C@@]21C [medroxyprogesterone acetate, reference compound]			
